Data published in US11400082B2, “Methods of treating elevated plasma cholesterol” (Montréal Heart Institute, priority 2017, dated 2022).
Read-outs that look alike come from different tables or passages of the source.

How the values were obtained:
[1] = Cell viability assay (MTT); format: cell-based; conditions: human; overnight incubation, viability relative to DMSO
Protocol: Following incubation, media was replaced and cells incubated for 4 h with 100 μL of phenol red-free DMEM containing 0.5 mg/mL of MTT (3-[4,5-dimethylthiazol-2-yl]-2,5-diphenyltetrazolium bromide; thiazolyl blue; catalog no. M5655, Sigma-Aldrich). Afterwards, media was removed and converted dye solubilized with 100 μL acidic isopropanol (0.06 N) and absorbance measured at a wavelength of 570 nm with background subtraction at 650 nm. Arbitrary units of cell viability of a given example were determined relative to equal volume of DMSO (vehicle) for each concentration used.

[2] = Pharmacokinetics in adult Sprague-Dawley rats; format: in vivo; conditions: average n = 4; for Cmax / AUC / AUC(0-t): rat blood
Protocol: All animal studies were approved by the Montreal Heart Institute (MHI) Animal Care and Ethical committee. Pharmacokinetic experiments were performed in collaboration at the Montreal Heart Institute in collaboration with the Platform of Biopharmacy at Université de Montréal. Briefly, Compound 2 (formulation PG:H20; 50:50 stock solution 2.5 mg/ml) was administered intravenously (iv) at 5 mg/kg (n=4) or by oral gavage (PO) at 25 mg/kg (n=4) in adult Sprague-Dawley male rats (˜200 g). […] Samples were mixed and centrifuged at 15000 rpm for 5 min. 50 μL of supernatant were transferred to an HPLC plate, and 100 μL of water+0.1% formic acid were added. […] Samples were analyzed in MRM mode using LC-MS/MS. The calibration curve was plotted using the ratio of the analyte peak area and the IS peak area, using a quadratic regression. Pharmacokinetic (PK) parameters were calculated using Kinetica Software for PK/PD Data Analysis, Simulation and Reporting (Thermo Fisher), based on the blood concentrations of each animal. Results are described in Table 4 and illustrated in FIG. 20.

C57BL/6 mice = assay: Efficacy and safety in hypercholesterolemic animal models, C57BL/6 mice; format: in vivo
Protocol: For in vivo proof-of-concept animal studies, wild-type C57BL/6 male mice (˜25 g; obtained from Charles River Laboratories) or Golden Syrian (˜120 g obtained from Envigo++) were housed in the 12 hour light/12 hour dark cycle, temperature and humidity controlled MHI animal facility. […] TD.88137, Envigo) for 14 days. […] Equivalent volume of vehicle containing corresponding formulations were orally administered to mice daily and designated as placebo (vehicle). […] Total cholesterol (catalog no. 439-17501, Wako) was quantified in total plasma and in each 0.3 mL collected fractions or in-line (Lipidomics Core of The Group on Molecular and Cell Biology of Lipids, University of Alberta) according to the manufacturer's instructions. Relative quantitation of AUC of total cholesterol corresponding to non-HDL lipoprotein positive fractions obtained from FPLC profiles are included in Table 3. Serum aspartate aminotransferase (AST) and alanine transaminase (ALT) were measured by the Montreal Heart Institute biochemical clinical chemistry platform according to manufacturer's recommendations.

[3] = male, Sprague-Dawley, rat, whole blood, PO 25 mg/kg
[4] = male, Sprague-Dawley, rat, whole blood, iv 5 mg/kg
[5] = male, Sprague-Dawley, whole blood, PO 25 mg/kg
[6] = male, Sprague-Dawley, whole blood, iv 5 mg/kg
[7] = C57BL/6, HFD, 40 mpk/d, 10 days, animals out of n

## O=C(NO)c1ncc(COc2ccc(F)cc2)c(CO)c1O [Compound 2, 5-(4-fluoro-phenoxymethyl)-3-hydroxy-4-hydroxymethyl-pyridine-2-carboxylic acid hydroxyamide]
[1]
  CC50: 50 µM
[2]; PO 25 mg/kg
  Lz: 0.24 h⁻¹
  Vss: 2.43 L
  clearance: 13.44 mL/min
  thalf: 2.97 h
  Cmax: 7.09 μMolar
[2]; iv 5 mg/kg
  Lz: 0.12 h⁻¹
  thalf: 6.60 h
  Cmax: 81.12 μMolar
[2]; male, Sprague-Dawley, rat, whole blood, PO 25 mg/kg vs iv 5 mg/kg
  bioavailability: 15%
[2]; [3]
  MRT: 206 min
  Tmax: 19.8 min
[2]; [4]
  MRT: 33 min
  Tmax: 4.8 min
[2]; male, Sprague-Dawley, rat, whole blood, iv 5 mg/kg, read-out: Clearance
  clearance: 2.2 mL/min
[2]; male, Sprague-Dawley, rat, whole blood, iv 5 mg/kg, read-out: Vss
  Vd: 0.08 L
[2]; [5]
  AUC: 24.3 µM·h
  AUC(0-t): 24.2 µM·h
[2]; [6]
  AUC: 31.9 µM·h
  AUC(0-t): 31.8 µM·h
C57BL/6 mice; C57BL/6, Chow, 25 mpk/d oral gavage, 3 days, n 3
  LDL-C (%) (FPLC TC) (pooled plasma): −31%
C57BL/6 mice; C57BL/6, HFD, 5 mpk/d oral gavage, 10 days, n 4
  LDL-C (%) (FPLC TC) (pooled plasma): −3 ± 8%
C57BL/6 mice; C57BL/6, HFD, 25 mpk/d oral gavage, 10 days, n 4
  LDL-C (%) (FPLC TC) (pooled plasma): −28 ± 8%
C57BL/6 mice; C57BL/6, HFD, 40 mpk/d oral gavage, 10 days, n 4
  LDL-C (%) (FPLC TC) (pooled plasma): −35 ± 2%
C57BL/6 mice; [7]
  ALT (3 × ULN): 0/4
  AST (3 × ULN): 0/4
